From patent US11964971B2, “Methods and compositions for modulating splicing” (Skyhawk Therapeutics, Inc., priority 2019, dated 2024) come the findings set out here.

One data set deals with SMN protein. The data set can be described thus: SMN protein assay (MSD) in SMA patient fibroblasts (GM03813). The class given is cell-based, human. A digest of the protocol:
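SMA patient fibroblasts GM03813 (7000 cells/well) treated 48 h with compounds from 2.5 μM to 0.6 nM. Lysate SMN protein quantified by MSD immunoassay against an SMN standard curve (1 to 19.5 μg/ml) on each plate, giving absolute amounts.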

Data set [1] deals with MDR1-MDCK cell monolayers. The data set can be described thus: MDCK-MDR1 permeability assay, blood-brain-barrier penetration potential.
In the next data set the test system is SMN FL and SMN Δ7. The data set can be described thus: Quantitative splicing assay (SMN) in SMA patient fibroblasts (GM03813). The class given is cell-based. The conditions noted are these: Homo sapiens, Fibroblast; class symbol; read-out: SMN2 Splicing FL EC50 (nM)*. The protocol: Spinal muscular atrophy (SMA) patient fibroblasts (GM03813, Coriell) are plated in 96-well plates at 50,000 cells/well. […] Treated cells are lysed and cDNA synthesized using the Fast Advanced Cells-to-Ct kit (Thermofisher A35378) according to the manufacturer's instructions. 2 μL of each cDNA are used in qPCR reactions. […] Reactions are run in a Quant Studio 6 qPCR instrument with default settings.

Data set [2] has as its system MDR1-MDCK cell monolayers. The conditions noted are these: dog, MDCK-MDR1, 120 min, 5 μM, pH 7.4.
Data set [3] relates to MDR1. Nature of the data set: in vitro. The conditions noted are these: dog; for Papp A→B at 120 min, 5 μM: MDCK-MDR1, pH 7.4, MDCK-MDR1: Papp A-B (10^−6, cm/s); for Papp B→A at 120 min, 5 μM: MDCK-MDR1, pH 7.4, MDCK-MDR1: Papp B-A (10^−6, cm/s).
Data set [4] concerns MDR1 (P-gp). The data set can be described thus: in vitro. The conditions noted are these: dog, MDCK-MDR1, pH 7.4.
The subject of data set [5] is MDR1. The data set can be described thus: MDCK-MDR1 permeability assay, blood-brain-barrier penetration potential. Particulars: dog, MDCK-MDR1, pH 7.4.
Data set [6] relates to MDR1 (P-gp). Described as above. Particulars: dog, MDCK-MDR1, pH 7.4, MDCK-MDR1 Efflux Ratio.
The mark [7] stands for this setting: dog, MDCK-MDR1, 120 min, 5 μM, pH 7.4.

Like-named read-outs stand apart in the source and are kept apart here.

A word on the EC50: it is the concentration giving half of the maximal effect. The compound “2-(5-(((1S,2S,3R,5R)-2-fluoro-8-azabicyclo[3.2.1]octan-3-yl)(methyl)aniino)pyrazin-2-yl)-5-(6-methoxypyrimidin-4-yl)phenol [Compound 34E1]” returned an EC50 in the data set with SMN protein of 101 to 500 nM. Moreover, in data set [1] (A-B), the “MDCK-MDR1: % Recov A-B (%)” value is on record as 20% and the “MDCK-MDR1: Papp A-B (10^−6, cm/s)” value is 2.78 10^−6, cm/s. In addition, in data set [1] (B-A), the “MDCK-MDR1: % Recov B-A (%)” value came out at 60% and the “MDCK-MDR1: Papp B-A (10^−6, cm/s)” value is listed as 8.79 10^−6, cm/s. In addition, the “MDCK-MDR1 Efflux Ratio” value in data set [1] (MDCK-MDR1) was 3.

Compound `CN(c1cnc(-c2cc(F)c(-c3cnn(C)c3)cc2O)cn1)[C@H]1C[C@@H]2CCC(N2)[C@H]1F` (single isomer, unassigned) [Compound 17E2] gave an EC50 in the data set on SMN protein of 0.01 to 15 nM. In addition, in data set [1] (setting [7]), the “MDCK-MDR1 Efflux Ratio” value was found to be 4. Also, the EC50 with SMN FL and SMN Δ7 lay within 101 to 500 nM. Besides, in data set [2], the “MDCK-MDR1: % Recov A-B (%)” value came to 24%; the “MDCK-MDR1: % Recov B-A (%)” value was 52%; the “MDCK-MDR1: Papp A-B (10^−6, cm/s)” value was 4.68 10^−6, cm/s; the “MDCK-MDR1: Papp B-A (10^−6, cm/s)” value is listed as 18 10^−6, cm/s.

Turning to `Cn1cc(-c2ccc(-c3cnc(N(C4CC4)[C@@H]4CC5CC[C@H](N5)[C@@H]4F)cn3)c(O)c2)cn1` (single isomer, unassigned) [Compound 49E2], the EC50 in the data set with SMN protein is 501 to 10000 nM. Besides, the “MDCK-MDR1 Efflux Ratio” value in data set [1] (setting [7]) came to 8. For the same compound, in data set [2], the “MDCK-MDR1: % Recov A-B (%)” value came out at 48%; the “MDCK-MDR1: % Recov B-A (%)” value is recorded as 63%; the “MDCK-MDR1: Papp A-B (10^−6, cm/s)” value is reported as 4.55 10^−6, cm/s; the “MDCK-MDR1: Papp B-A (10^−6, cm/s)” value is recorded as 34.9 10^−6, cm/s.

In turn, `COc1cc(-c2cc(O)c(-c3cnc(N(C)[C@@H]4C[C@@]5(C)CC[C@](C)(N5)[C@@H]4F)cn3)cc2F)cnn1` (single isomer, unassigned) [Compound 64E2] showed a half-maximal effective concentration (EC50) with SMN protein of 101 to 500 nM. In data set [1] (setting [7]), the “MDCK-MDR1 Efflux Ratio” value came to 11. In data set [2], the “MDCK-MDR1: % Recov A-B (%)” value is 69%; the “MDCK-MDR1: % Recov B-A (%)” value was 78%; the “MDCK-MDR1: Papp A-B (10^−6, cm/s)” value is given as 4.1 10^−6, cm/s; the “MDCK-MDR1: Papp B-A (10^−6, cm/s)” value is given as 44.1 10^−6, cm/s.

One may read the Papp A→B as the apparent permeability from the apical to the basolateral side of a cell layer. Read a high Papp A→B as ready permeation. Usually Papp B→A stands for how fast a substance crosses the layer from the basolateral side. In general, efflux ratio refers to the permeability from basolateral to apical divided by that in the opposite direction, in the common usage. In the data set with MDR1 [3], `CNC(=O)/C=C/c1cc(O)c(-c2cnc(N(C3CC3)[C@H]3C[C@]4(C)CC[C@@](C)(N4)[C@H]3F)cn2)cc1F` (single isomer, unassigned) [Compound 79E2] had a Papp A→B at 120 min, 5 μM of 2.05 ×10⁻⁶ cm/s and a Papp B→A at 120 min, 5 μM of 52.7 ×10⁻⁶ cm/s. Moreover, the efflux ratio at 120 min, 5 μM in the data set on MDR1 (P-gp) [4] was found to be 26. In addition, in data set [2], the “MDCK-MDR1: % Recov A-B (%)” value is given as 91% and the “MDCK-MDR1: % Recov B-A (%)” value turned out to be 89%.

`CN(c1cnc(-c2ccc(-c3cn[nH]c3)cc2O)cn1)[C@@H]1C[C@@]2(C)CC[C@](C)(N2)[C@@H]1F` [Compound 22E1, 2-(5-(((1S,2R,3R,5R)-2-fluoro-1,5-dimethyl-8-azabicyclo[3.2.1]octan-3-yl)(methyl)amino)pyrazin-2-yl)-5-(1H-pyrazol-4-yl)phenol] had an EC50 with SMN protein of 501 to 10000 nM. In addition, the “MDCK-MDR1: % Recov A-B (%)” value in data set [1] (A-B) turned out to be 63%. In addition, in data set [1] (B-A), the “MDCK-MDR1: % Recov B-A (%)” value was 78%. In the data set on MDR1 [5], this compound displayed a Papp A→B at 120 min, 5 μM of 4.14 ×10⁻⁶ cm/s and a Papp B→A at 120 min, 5 μM of 39.8 ×10⁻⁶ cm/s. In addition, the efflux ratio at 120 min, 5 μM in the data set with MDR1 (P-gp) [6] was determined as 10.

For the compound `CN(c1cnc(-c2ccc(-c3cn[nH]c3)cc2O)cn1)[C@H]1C[C@]2(C)CC[C@@](C)(N2)[C@H]1F` [Compound 22E2, 2-(5-(((1R,2S,3S,5S)-2-fluoro-1,5-dimethyl-8-azabicyclo[3.2.1]octan-3-yl)(methyl)amino)pyrazin-2-yl)-5-(1H-pyrazol-4-yl)phenol], the EC50 in the data set with SMN protein fell in the range of 501 to 10000 nM. Moreover, the “MDCK-MDR1: % Recov A-B (%)” value in data set [1] (A-B) is given as 66%. Besides, the “MDCK-MDR1: % Recov B-A (%)” value in data set [1] (B-A) came out at 81%. Besides, in the data set with MDR1 [5], the Papp A→B at 120 min, 5 μM came to 3.49 ×10⁻⁶ cm/s and the Papp B→A at 120 min, 5 μM is 34.5 ×10⁻⁶ cm/s. Further, the efflux ratio at 120 min, 5 μM in the data set with MDR1 (P-gp) [6] worked out at 10.

`CN(c1cnc(-c2cc(F)c(-c3ccn(C)c(=O)c3)cc2O)cn1)[C@@H]1C[C@@]2(C)CC[C@](C)(N2)[C@@H]1F` [Compound 62E1, 4-(2-fluoro-4-(5-(((1S,2R,3R,5R)-2-fluoro-1,5-dimethyl-8-azabicyclo[3.2.1]octan-3-yl)(methyl)amino)pyrazin-2-yl)-5-hydroxyphenyl)-1-methylpyridin-2(1H)-one]: in the data set with SMN protein, the EC50 is 501 to 10000 nM. Further, the “MDCK-MDR1 Efflux Ratio” value in data set [1] (setting [7]) came to 14. In addition, in the data set on MDR1 (P-gp) [6], the efflux ratio at 120 min, 5 μM worked out at 11. In the data set with MDR1 [3], this compound came in with a Papp A→B at 120 min, 5 μM of 2.82 ×10⁻⁶ cm/s and a Papp B→A at 120 min, 5 μM of 30.7 ×10⁻⁶ cm/s. Besides, in data set [2], the “MDCK-MDR1: Papp A-B (10^−6, cm/s)” value is listed as 2.88 10^−6, cm/s and the “MDCK-MDR1: Papp B-A (10^−6, cm/s)” value is recorded as 41.5 10^−6, cm/s.

Regarding `CN(c1cnc(-c2ccc(-c3cc[nH]c(=O)c3)cc2O)cn1)[C@H]1C[C@@H]2CC[C@@H](N2)[C@H]1F` [Compound 76E2, 4-(4-(5-(((1R,2R,3S,5S)-2-fluoro-8-azabicyclo[3.2.1]octan-3-yl)(methyl)amino)pyrazin-2-yl)-3-hydroxyphenyl)pyridin-2(1H)-one], the EC50 in the data set on SMN protein was in the range of 16 to 50 nM. In addition, the efflux ratio at 120 min, 5 μM in the data set on MDR1 (P-gp) [6] was determined as 78. Also, the EC50 in the data set on SMN FL and SMN Δ7 fell in the range of 101 to 500 nM. Besides, in the data set on MDR1 [3], the Papp A→B at 120 min, 5 μM was 0.37 ×10⁻⁶ cm/s and the Papp B→A at 120 min, 5 μM came to 28.9 ×10⁻⁶ cm/s. Further, in data set [2], the “MDCK-MDR1: % Recov A-B (%)” value came to 93% and the “MDCK-MDR1: % Recov B-A (%)” value worked out at 75%.
